Measurements from patent publication US9717719B2, “Treatment, prevention, and reversal of alcohol-induced liver disease” (Rhode Island Hospital, priority 2006, dated 2017).
“Also recorded” adds a separate entry of the source.

What was measured:
[1] = system: insulin, IGF-I, IGF-II, their receptors, IRS-1, IRS-2, IRS-4 mRNA in liver; test: qRT-PCR of hepatic insulin and IGF polypeptides, their receptors, and IRS molecules; type: in vivo, rat; details: relative to vehicle; for IGF-II mRNA: chronic ethanol feeding; for IGF-I mRNA: control rats
Text: Chow fed control rats were also studied. Rats were monitored daily to ensure equivalent food consumption and maintenance of body weight. […] At the conclusion of the experiment, rats were anesthetized with vaporized isofluorane (SurgiVet, Inc. Waukesha, Wis.), and liver and blood were harvested for analysis. Liver tissue samples were immersion fixed in Histochoice (Amresco Corp., Solon, Ohio) and embedded in paraffin. Adjacent histological sections were stained with Hematoxylin and Eosin or Gomori's Trichrome and examined under code. In addition, liver tissue samples were snap-frozen in a dry ice methanol bath and then stored at −80° C. for later mRNA and protein studies. Throughout the experiment, rats were housed under humane conditions and kept on a 12-hour light/dark cycle with free access to food. All experiments were performed in accordance with protocols that conform to guidelines established by the National Institutes of Health and were approved by Institutional Animal Care and Use Committee at the Lifespan-Rhode Island Hospital.
(§1) Total RNA was extracted from liver tissue using TRIzol® reagent (Invitrogen, Carlsbad, Calif.) according to the manufacturer's protocol. RNA concentrations and purity were determined from the absorbances measured at 260 nm and 280 nm. RNA (2 μg) was reverse transcribed using the AMV First Strand cDNA synthesis kit (Roche Diagnostics Corporation, Indianapolis, Ind.) and random oligodeoxynucleotide primers. Quantitative reverse transcriptase polymerase chain reaction (qRT-PCR) assays were used to measure steady-state levels of specific mRNA transcripts. PCR amplifications were performed in 20 μl reactions containing cDNA generated from 2.5 ng of original RNA template, 300 nM each of gene specific forward and reverse primer (Table 2), and 10 μl of 2× QuantiTect SYBR Green PCR Mix (Qiagen Inc, Valencia, Calif.). The amplified signals were detected continuously with the Mastercycler ep realplex instrument and software (Eppendorf AG, Hamburg, Germany). The amplification protocol used was as follows: initial 15-minutes denaturation and enzyme activation at 95° C., 45 cycles of 95° C.×15 sec, 55°-60° C.×30 sec, and 72° C.×30 sec. Annealing temperatures were optimized using the temperature gradient program provided with the Mastercycler ep realplex software.
(§2) Complementary (c) DNAs were cloned into PCR-II vectors (Invitrogen, Carlsbad, Calif.). […] Serial dilutions of recombinant plasmid DNA containing target sequences were used as standards in PCR reactions, and regression lines generated from the Ct values of the standards were used to calculate mRNA abundance. Relative mRNA expression was expressed as the ng ratio of specific mRNA to ribosomal (r) 18S measured in the same samples because 18S is highly abundant and the levels are not modulated with disease state. Statistical comparisons were made using the calculated mRNA/18S ratios.

[2] = system: liver mRNA levels of albumin, ASBT, GFAP, KCR, desmin, and collagen; test: Liver cell profiling by qRT-PCR; type: in vivo, rat; details: for GFAP mRNA / collagen mRNA / desmin mRNA / ASBT mRNA / albumin mRNA: relative to vehicle
Text: Adult male (˜200-250 g) Long Evans rats (Harlan Sprague Dawley, Inc., Indianapolis, Ind.) were pair-fed with isocaloric liquid diets (BioServ, Frenchtown, N.J.) containing 0% (control) or 37% ethanol by caloric content (9.2% v/v) for 8 weeks. During the week prior to initiating the experiment, rats were adapted to the ethanol-containing diets by sequentially feeding them for two days each with diets containing 8%, 17%, 24%, and then 37% ethanol. Chow fed control rats were also studied. Rats were monitored daily to ensure equivalent food consumption and maintenance of body weight. During the last 3 weeks of the experiment while being maintained on either the 0% or 37% ethanol-containing liquid diets, rats in both groups were administered twice weekly (Mondays and Thursdays) intra-peritoneal (i.p.) injections of vehicle (saline), a PPAR-α (GW7647; 25 μg/kg), PPAR δ (L-165,041; 2 μg/kg), or PPAR-γ (F-L-Leu; 20 μg/kg) agonist (CalBiochem, Carlsbad, Calif.). At the conclusion of the experiment, rats were anesthetized with vaporized isofluorane (SurgiVet, Inc. Waukesha, Wis.), and liver and blood were harvested for analysis. Liver tissue samples were immersion fixed in Histochoice (Amresco Corp., Solon, Ohio) and embedded in paraffin. Adjacent histological sections were stained with Hematoxylin and Eosin or Gomori's Trichrome and examined under code. In addition, liver tissue samples were snap-frozen in a dry ice methanol bath and then stored at −80° C. for later mRNA and protein studies. Throughout the experiment, rats were housed under humane conditions and kept on a 12-hour light/dark cycle with free access to food. All experiments were performed in accordance with protocols that conform to guidelines established by the National Institutes of Health and were approved by Institutional Animal Care and Use Committee at the Lifespan-Rhode Island Hospital.
as §1
as §2, with “In preliminary studies, SYBR Green-labeled PCR products were evaluated by agarose gel electrophoresis, and authenticity was verified by nucleic acid sequencing. Complementary” for “Complementary”, “ratios. […]” for “ratios.”

[3] = control livers, relative to vehicle (not statistically significant)
[4] = ethanol-exposed livers, relative to vehicle (statistically significant)

CC(C)(Sc1ccc(CCN(CCCCC2CCCCC2)C(=O)NC2CCCCC2)cc1)C(=O)O [PPAR-α, GW7647]
insulin gene expression ([1]; ethanol-exposed group): reduced | KCR mRNA [2, 3]: increased | GFAP mRNA ([2]; control rats): significantly increased | collagen mRNA ([2]; controls): increased | desmin mRNA ([2]; ethanol-exposed livers): no significant effect | KCR mRNA [2, 4]: increased | GFAP mRNA ([2]; ethanol-exposed rats): significantly increased | ASBT mRNA ([2]; ethanol-fed rats): significantly increased; also recorded: normalized | albumin mRNA ([2]; ethanol-fed rats): significantly increased; also recorded: normalized | collagen mRNA ([2]; ethanol-fed rats): further increased

CC(C)C[C@H](NC(=O)OCC1c2ccccc2-c2ccccc21)C(=O)O [PPAR-γ, F-L-Leu]
IGF-II mRNA [1]: significantly reduced | insulin gene expression ([1]; control group): significantly increased | IGF-I mRNA [1]: significantly increased | IRS-2 mRNA ([1]; ethanol-exposed rats): significantly reduced | desmin mRNA ([2]; control group): significantly reduced | ASBT mRNA ([2]; control livers): decreased | albumin mRNA ([2]; control livers): significantly increased | KCR mRNA [2, 3]: increased | desmin mRNA ([2]; ethanol-exposed livers): significantly increased | KCR mRNA [2, 4]: increased | GFAP mRNA ([2]; ethanol-exposed rats): significantly increased | ASBT mRNA ([2]; ethanol-fed rats): did not significantly alter | albumin mRNA ([2]; ethanol-fed rats): did not significantly alter | collagen mRNA ([2]; ethanol-fed rats): significantly reduced

CCCc1c(OCCCOc2ccc(OCC(=O)O)cc2)ccc(C(C)=O)c1O [PPAR-δ, L-165,041]
IGF-II mRNA [1]: significantly reduced | IRS-2 mRNA ([1]; control group): significantly increased | insulin gene expression ([1]; control group): significantly increased | IGF-I mRNA [1]: significantly increased | insulin receptor mRNA ([1]; controls): increased | IRS-4 mRNA ([1]; ethanol-exposed group): significantly reduced | insulin gene expression ([1]; ethanol-exposed group): reduced | insulin receptor mRNA ([1]; ethanol-fed rat livers): significantly reduced | IRS-1 mRNA ([1]; ethanol-fed rats): significantly reduced | desmin mRNA ([2]; control group): significantly reduced | ASBT mRNA ([2]; control livers): decreased | albumin mRNA ([2]; control livers): significantly increased | KCR mRNA [2, 3]: increased | collagen mRNA ([2]; controls): increased | desmin mRNA ([2]; ethanol-exposed livers): no significant effect | KCR mRNA [2, 4]: increased | ASBT mRNA ([2]; ethanol-fed rats): did not significantly alter; also recorded: normalized | albumin mRNA ([2]; ethanol-fed rats): significantly increased; also recorded: normalized | collagen mRNA ([2]; ethanol-fed rats): significantly reduced
